From EP0377044B1, “PROTECTIVE AGENT FOR RADIATION HAZARD” (MITSUI TOATSU CHEMICALS, Inc., priority 1988, dated 1989)
Square brackets hold non-standard residues; d marks the D form. Peptide text beside a SMILES is read from it. pGlu = O=C1CC[C@@H](C(=O)O)N1

Tests used:
ddy male mice = test: Toxicity test, repeated subcutaneous administration to mice; format: in vivo; conditions: for toxicity: five ddy male mice of 5 weeks old
From the text: (§1) Thus, the medicament of the present invention is a safe medicament of extremely low toxicity and can be administered for a long period of time.

[1] = test system: mice were subjected to 600R X-radiation / 400R X-radiation; test: Blood test in X-irradiated mice (600R and 400R); format: in vivo; conditions: for Blood parameters HCT / Blood parameters HGB / Blood parameters PLT / Blood parameters RBC / Blood parameters RET / Blood parameters WBC: pre-administration with 100 µg; for Blood parameters HCT: hematocrit value; for Blood parameters HGB: hemoglobin; for Blood parameters PLT: number of blood platelet; for Blood parameters RBC: number of red blood cells; for Blood parameters RET: number of reticulocytes; for Blood parameters WBC: number of white blood cells
Experimental: Independently of the irraditation carried out in Experimental Example 3 with mice for life/death observation, mice were subjected to 600R X-radiation to conduct a blood test on a dayly basis. Another group of mice was prepared and subjected to 400R X-radiation. Each of the 600R- and 400R-irradiated groups was further divided into two, one `group being for pre-administration with 100 µg of the above mentioned medicament and the other group serving as a control. Samples of blood were taken every day from each mouse and tested for the number white blood cells (WBC), that of red blood cells (RBC), that of reticulocytes (RET), that of blood platelet (PLT), that of hemoglobin (HGB) and hematocrit value (HCT).

[2] = test system: mice irradiated with 800R X-rays; test: Survival of mice after whole body irradiation with 800R X-rays; format: in vivo, C3H/He mice; conditions: for The number of days and survivals after X-radiation 10 (days) / The number of days and survivals after X-radiation 11 (days) / The number of days and survivals after X-radiation 12 (days) / The number of days and survivals after X-radiation 13 (days) / The number of days and survivals after X-radiation 14 (days) / The number of days and survivals after X-radiation 15 (days) / The number of days and survivals after X-radiation 16 (days) / The number of days and survivals after X-radiation 17 (days) / The number of days and survivals after X-radiation 18 (days) / The number of days and survivals after X-radiation 19 (days) / The number of days and survivals after X-radiation 20 (days) / The number of days and survivals after X-radiation 25 (days) / The number of days and survivals after X-radiation 30 (days): 14 days; for The number of days and survivals after X-radiation 10 (days): day 10, 15 animals used; for The number of days and survivals after X-radiation 11 (days): day 11, 15 animals used; for The number of days and survivals after X-radiation 12 (days): day 12, 15 animals used; for The number of days and survivals after X-radiation 13 (days): day 13, 15 animals used; for The number of days and survivals after X-radiation 14 (days): day 14, 15 animals used; for The number of days and survivals after X-radiation 15 (days): day 15, 15 animals used; for The number of days and survivals after X-radiation 16 (days): day 16, 15 animals used; for The number of days and survivals after X-radiation 17 (days): day 17, 15 animals used; for The number of days and survivals after X-radiation 18 (days): day 18, 15 animals used; for The number of days and survivals after X-radiation 19 (days): day 19, 15 animals used; for The number of days and survivals after X-radiation 20 (days): day 20, 15 animals used; for The number of days and survivals after X-radiation 25 (days): day 25, 15 animals used; for The number of days and survivals after X-radiation 30 (days): day 30, 15 animals used
Experimental: (§2) Male, 10 week-old C3H/He mice were used and groups of 10 - 15 animals each were prepared.
(§3) The mice were subjected to whole body irradiation for 8 minutes using a X-radiation unit (manufactured by Shimazu Seisaku-sho, Shin-Ai 250 II). These animals received, once per day, subcutaneous administration of 100 µg of FTS·CH₃COOH·2H₂O as used in Example 1 for consecutive 14 days. For a pre-administered group, the administration started two days before the irradiation. For a post-administered group, the first administration was effected immediately after the irradiation. As control groups, one group which received only once subcutaneous administration of 1 KE of Picibanil immediately after the irradiation and another group which received every day administration of physiological saline were prepared.

[3] = test system: mice irradiated with 600R X-rays; test: Survival of mice after whole body irradiation with 600R X-rays; format: in vivo
Experimental: as §2, §3
In the same manner as in Experimental Examples 1 and 2, mice were irradiated with X-rays for 6 minutes. For a period of consecutive 14 days from 2 days before irradiation, the animals were subcutaneously administered, once a day, with 100 µg/day of FTS·CH₃COOH·2H₂O as medicament.

[4] = test system: radiation-induced cancers in mice; test: Development of radiation-induced cancers in irradiated mice; format: in vivo; conditions: administration over a certain period
mice = test: Whole body X-irradiation, % survival over thirty days (general description); format: in vivo
Experimental: The effect of the radioprotective agent of the present invention is confirmed by the experiments as described below. Thus, mice, rats, guinea pigs or the like mammals were subjected to whole body irradiation, using a X-radiation unit (Shimazu Seisaku-sho, Shin-Ai 250 II), to determine % survival over a period of thirty days. In carrying out these experiments, given amounts of the nonapeptide were administered by different routes of administration, such as intraperitoneal, intravenous, intramuscular, subcutaneous or oral route of administration, either every day or every other day over a given period of time from before or from immediately after the irradiation, to measure the body-weight of the animals and observe whether they were alive or dead.

Wister rats = test: Toxicity test, repeated subcutaneous administration to rats; format: in vivo
From the text: as §1

[5] = test system: animals subjected to whole body irradiation with lethal or sub-lethal doses; test: Recovery of hematopoietic dysfunctions and immune responses after whole body irradiation (general description); format: in vivo
Experimental: On the other hand, animals were subjected to whole body irradiation with lethal or sub-lethal doses and changes with the lapse of time in the number of blood cells were measured for given periods of time in order to check the medicament for the promotive effect on the recovery of hematopoietic dysfunctions. Blood cells used as index included red blood cells, reticulocytes, white blood cells such as lymphocytes and neutrophils, platelets, hemoglobins, hematocrit and the like. […] Thus, as is evident from these observations, the medicament of the present invention is believed to act on hematopoietic organs, e.g. bone marrow and spleen, and exert the life span-extending or life-saving effect due to its inhibitory or recovery-promoting effect on hematopoietic dysfunctions, and it is therefore valuable as a preventive and therapeutic agent against radiation damages.

[6] = post-administration 100 µg s.c. once per day, from immediately after irradiation
[7] = pre-administration 100 µg s.c. once per day, from two days before irradiation

C[C@H](NC(=O)[C@@H]1CCC(=O)N1)C(=O)N[C@@H](CCCCN)C(=O)N[C@@H](CO)C(=O)N[C@@H](CCC(N)=O)C(=O)NCC(=O)NCC(=O)N[C@@H](CO)C(=O)N[C@@H](CC(N)=O)C(=O)O [medicament, pGlu-Ala-Lys-Ser-Gln-Gly-Gly-Ser-Asn] ([pGlu]AKSQGGSN-OH)
toxicity (ddy male mice; 50 mg/kg subcutaneously for consecutive 14 days): No toxicity was observed
toxicity (external check) (ddy male mice; 100 mg/kg subcutaneously every day for consecutive 14 days, mice): no abnormal symptom was found by external check
toxicity (ddy male mice; 100 mg/kg subcutaneously for consecutive 14 days): No toxicity was observed
Blood parameters HCT ([1]; 400R X-rays, on the 14th day): 29.8±1.4
Blood parameters HGB ([1]; 400R X-rays, on the 14th day): 8.8±0.3
Blood parameters PLT ([1]; 400R X-rays, on the 14th day): 240.6±14.3
Blood parameters RBC ([1]; 400R X-rays, on the 14th day): 522.7±21.7
Blood parameters RET ([1]; 400R X-rays, on the 14th day): 30.0±6.5
Blood parameters WBC ([1]; 400R X-rays, on the 14th day): 8.7±0.4
Blood parameters HCT ([1]; 600R X-rays, on the 7th day): 39.1±5.5
Blood parameters HGB ([1]; 600R X-rays, on the 7th day): 12.3±1.9
Blood parameters PLT ([1]; 600R X-rays, on the 7th day): 372.0±174.7
Blood parameters RBC ([1]; 600R X-rays, on the 7th day): 691.8±96.1
Blood parameters RET ([1]; 600R X-rays, on the 7th day): 24.6±10.9
Blood parameters WBC ([1]; 600R X-rays, on the 7th day): 34.2±25.2
blood parameters (WBC, RBC, RET, PLT, HGB, HCT) ([1]; 600R or 400R X-radiation, pre-administration 100 µg, compared with control group, summary of Table 4): apparently improved
dying of mice due to irradiation ([2]; 100 µg s.c. once per day for 14 days, summary of Table 1): clearly prevents or inhibits the dying of mice due to irradiation
The number of days and survivals after X-radiation 10 (days) [2, 6]: 15
The number of days and survivals after X-radiation 11 (days) [2, 6]: 15
The number of days and survivals after X-radiation 12 (days) [2, 6]: 15
The number of days and survivals after X-radiation 13 (days) [2, 6]: 14
The number of days and survivals after X-radiation 14 (days) [2, 6]: 13
The number of days and survivals after X-radiation 15 (days) [2, 6]: 10
The number of days and survivals after X-radiation 16 (days) [2, 6]: 8
The number of days and survivals after X-radiation 17 (days) [2, 6]: 6
The number of days and survivals after X-radiation 18 (days) [2, 6]: 6
The number of days and survivals after X-radiation 19 (days) [2, 6]: 6
The number of days and survivals after X-radiation 20 (days) [2, 6]: 6
The number of days and survivals after X-radiation 25 (days) [2, 6]: 5
The number of days and survivals after X-radiation 30 (days) [2, 6]: 5
The number of days and survivals after X-radiation 10 (days) [2, 7]: 15
The number of days and survivals after X-radiation 11 (days) [2, 7]: 15
The number of days and survivals after X-radiation 12 (days) [2, 7]: 15
The number of days and survivals after X-radiation 13 (days) [2, 7]: 15
The number of days and survivals after X-radiation 14 (days) [2, 7]: 15
The number of days and survivals after X-radiation 15 (days) [2, 7]: 14
The number of days and survivals after X-radiation 16 (days) [2, 7]: 13
The number of days and survivals after X-radiation 17 (days) [2, 7]: 11
The number of days and survivals after X-radiation 18 (days) [2, 7]: 11
The number of days and survivals after X-radiation 19 (days) [2, 7]: 11
The number of days and survivals after X-radiation 20 (days) [2, 7]: 9
The number of days and survivals after X-radiation 25 (days) [2, 7]: 9
The number of days and survivals after X-radiation 30 (days) [2, 7]: 9
animals survived ([3]; in 19 days, 100 µg/day s.c. 14 days from 2 days before irradiation, control four out of ten): ten out of ten
The number of days and survivals after X-radiation 8 (days) ([3]; pre-administration 100 µg/day s.c., 14 days from 2 days before irradiation, day 8, 10 animals used): 10
The number of days and survivals after X-radiation 9 (days) ([3]; pre-administration 100 µg/day s.c., 14 days from 2 days before irradiation, day 9, 10 animals used): 10
The number of days and survivals after X-radiation 10 (days) ([3]; pre-administration 100 µg/day s.c., 14 days from 2 days before irradiation, day 10, 10 animals used): 10
The number of days and survivals after X-radiation 11 (days) ([3]; pre-administration 100 µg/day s.c., 14 days from 2 days before irradiation, day 11, 10 animals used): 10
The number of days and survivals after X-radiation 12 (days) ([3]; pre-administration 100 µg/day s.c., 14 days from 2 days before irradiation, day 12, 10 animals used): 10
The number of days and survivals after X-radiation 13 (days) ([3]; pre-administration 100 µg/day s.c., 14 days from 2 days before irradiation, day 13, 10 animals used): 10
The number of days and survivals after X-radiation 14 (days) ([3]; pre-administration 100 µg/day s.c., 14 days from 2 days before irradiation, day 14, 10 animals used): 10
The number of days and survivals after X-radiation 15 (days) ([3]; pre-administration 100 µg/day s.c., 14 days from 2 days before irradiation, day 15, 10 animals used): 10
The number of days and survivals after X-radiation 16 (days) ([3]; pre-administration 100 µg/day s.c., 14 days from 2 days before irradiation, day 16, 10 animals used): 10
The number of days and survivals after X-radiation 17 (days) ([3]; pre-administration 100 µg/day s.c., 14 days from 2 days before irradiation, day 17, 10 animals used): 10
The number of days and survivals after X-radiation 18 (days) ([3]; pre-administration 100 µg/day s.c., 14 days from 2 days before irradiation, day 18, 10 animals used): 10
The number of days and survivals after X-radiation 19 (days) ([3]; pre-administration 100 µg/day s.c., 14 days from 2 days before irradiation, day 19, 10 animals used): 10
The number of days and survivals after X-radiation 30 (days) ([3]; pre-administration 100 µg/day s.c., 14 days from 2 days before irradiation, day 30, 10 animals used): 10
development of radiation-induced cancers [4]: inhibits the development of radiation-induced cancers in mice
inhibition of body-weight loss (mice; compared with the control group): significant inhibition of body-weight loss
% survival (mice; over a period of thirty days, depending on the dose of radiation, all mice in control group died): 40 - 100%
life span-extending effect (mice; versus control group): significant or marked life span-extending effect
toxicity (external behavior observation, biochemical diagnosis of sera, pathological anatomy) (Wister rats; 30 mg/kg subcutaneously every day for consecutive 21 days, rats): no abnormal symptom was found in external behavior observation and biochemical diagnosis of sera and in a result of pathological anatomy
toxicity (Wister rats; 30 mg/kg subcutaneously for consecutive 21 days, ten Wister rats of 5 weeks old): No toxicity was observed
immune responses of immunocytes (spleen cells response to Con A, thymus cells reactivity to IL-1) ([5]; irradiated animals, examined every day, versus control group): apparently higher than those for the control group
immunocytes capabilities of humoral factor production (IL-1 by peritoneal macrophage, CSF by spleen cells and peritoneal macrophage) ([5]; irradiated animals, versus control group): superior to the control group
reduction of blood cells due to irradiation ([5]; whole body irradiation with lethal or sub-lethal doses, red blood cells, reticulocytes, white blood cells, platelets, hemoglobins, hematocrit): markedly inhibited
